Here are results for 1 compound from article PMC11122421 (Marine Drugs, 2024).

One assay concerns the target T1, rat α6/α3β4 nAChRs (Rattus norvegicus, UniProt P04757+P12392+P43143).
T1 construct: expressed in transfected cells; host or cells: Xenopus laevis oocytes injected with cRNA; plasmids from J. Michael McIntosh (University of Utah)
In kind it is cell-based.

The target in a further assay is T2, rat α7 nAChRs (Rattus norvegicus, UniProt Q05941).
T2 construct: expressed in transfected cells; host or cells: Xenopus laevis oocytes injected with cRNA; plasmids from J. Michael McIntosh (University of Utah)
T2 sequence (Q05941 23-502): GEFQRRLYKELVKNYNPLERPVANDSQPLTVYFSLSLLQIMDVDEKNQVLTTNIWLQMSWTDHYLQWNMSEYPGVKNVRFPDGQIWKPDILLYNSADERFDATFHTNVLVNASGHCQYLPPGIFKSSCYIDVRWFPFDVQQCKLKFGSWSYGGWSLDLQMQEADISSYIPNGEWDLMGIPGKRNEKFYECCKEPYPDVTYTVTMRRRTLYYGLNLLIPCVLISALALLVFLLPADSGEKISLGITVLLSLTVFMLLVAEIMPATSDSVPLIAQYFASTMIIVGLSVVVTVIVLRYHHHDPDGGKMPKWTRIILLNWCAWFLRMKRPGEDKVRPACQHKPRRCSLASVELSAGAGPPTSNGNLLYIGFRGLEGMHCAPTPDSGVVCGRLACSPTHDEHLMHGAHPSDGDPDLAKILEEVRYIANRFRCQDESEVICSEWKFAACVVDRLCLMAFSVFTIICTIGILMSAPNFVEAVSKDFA
Put plainly: cell-based. In kind it is cell-based.

In another assay the target is T3, rat α3β2 nAChR (Rattus norvegicus, UniProt P04757+P12390).
T3 construct: expressed in transfected cells; host or cells: Xenopus laevis oocytes injected with cRNA; plasmids from J. Michael McIntosh (University of Utah)
T3 sequence (P04757 26-499 limits assumed): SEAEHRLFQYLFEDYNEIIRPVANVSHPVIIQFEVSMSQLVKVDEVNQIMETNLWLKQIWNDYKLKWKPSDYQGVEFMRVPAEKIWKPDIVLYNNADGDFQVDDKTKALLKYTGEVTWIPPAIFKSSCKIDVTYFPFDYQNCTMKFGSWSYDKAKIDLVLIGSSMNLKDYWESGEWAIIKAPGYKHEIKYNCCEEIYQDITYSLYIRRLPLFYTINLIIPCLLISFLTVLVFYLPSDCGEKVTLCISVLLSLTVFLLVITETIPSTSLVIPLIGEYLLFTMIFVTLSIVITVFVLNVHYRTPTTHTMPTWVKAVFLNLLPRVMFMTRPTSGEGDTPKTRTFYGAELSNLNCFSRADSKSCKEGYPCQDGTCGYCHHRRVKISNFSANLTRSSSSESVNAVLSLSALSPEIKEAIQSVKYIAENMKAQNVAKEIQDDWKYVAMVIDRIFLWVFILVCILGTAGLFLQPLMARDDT
T3 sequence (P12390 25-500 limits assumed): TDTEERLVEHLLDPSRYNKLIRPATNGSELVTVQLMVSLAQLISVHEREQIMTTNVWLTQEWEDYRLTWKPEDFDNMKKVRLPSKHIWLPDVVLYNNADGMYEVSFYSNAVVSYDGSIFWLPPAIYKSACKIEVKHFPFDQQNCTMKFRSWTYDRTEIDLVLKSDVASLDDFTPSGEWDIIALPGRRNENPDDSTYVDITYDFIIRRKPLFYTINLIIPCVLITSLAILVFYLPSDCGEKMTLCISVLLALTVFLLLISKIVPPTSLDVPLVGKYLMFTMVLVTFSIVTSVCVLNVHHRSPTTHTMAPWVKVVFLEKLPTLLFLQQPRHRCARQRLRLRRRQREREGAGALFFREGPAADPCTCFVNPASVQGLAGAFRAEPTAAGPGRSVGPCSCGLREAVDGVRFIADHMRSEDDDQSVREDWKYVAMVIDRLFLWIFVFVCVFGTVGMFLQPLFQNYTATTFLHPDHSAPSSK
In words: cell-based.

SMILES strings stand for the structures. Where a SMILES comes first, the peptide text is derived from it. Bridges are numbered along the chain shown (N, C = ends).

T1 sequence (P43143+P04757 fused with the stated changes): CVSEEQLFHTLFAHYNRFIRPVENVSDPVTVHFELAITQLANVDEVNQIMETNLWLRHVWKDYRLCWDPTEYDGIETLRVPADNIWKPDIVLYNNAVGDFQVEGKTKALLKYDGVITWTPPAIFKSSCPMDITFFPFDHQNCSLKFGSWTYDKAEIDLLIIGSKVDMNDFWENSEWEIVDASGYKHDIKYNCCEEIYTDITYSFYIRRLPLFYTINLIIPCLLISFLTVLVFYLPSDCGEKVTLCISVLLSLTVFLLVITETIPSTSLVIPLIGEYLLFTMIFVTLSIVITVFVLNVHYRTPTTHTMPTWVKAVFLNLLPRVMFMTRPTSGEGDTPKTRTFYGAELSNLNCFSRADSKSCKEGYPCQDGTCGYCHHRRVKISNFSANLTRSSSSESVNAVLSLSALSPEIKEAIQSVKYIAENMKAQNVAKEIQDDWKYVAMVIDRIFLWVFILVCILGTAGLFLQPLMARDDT
T1 sequence (P12392 21-495): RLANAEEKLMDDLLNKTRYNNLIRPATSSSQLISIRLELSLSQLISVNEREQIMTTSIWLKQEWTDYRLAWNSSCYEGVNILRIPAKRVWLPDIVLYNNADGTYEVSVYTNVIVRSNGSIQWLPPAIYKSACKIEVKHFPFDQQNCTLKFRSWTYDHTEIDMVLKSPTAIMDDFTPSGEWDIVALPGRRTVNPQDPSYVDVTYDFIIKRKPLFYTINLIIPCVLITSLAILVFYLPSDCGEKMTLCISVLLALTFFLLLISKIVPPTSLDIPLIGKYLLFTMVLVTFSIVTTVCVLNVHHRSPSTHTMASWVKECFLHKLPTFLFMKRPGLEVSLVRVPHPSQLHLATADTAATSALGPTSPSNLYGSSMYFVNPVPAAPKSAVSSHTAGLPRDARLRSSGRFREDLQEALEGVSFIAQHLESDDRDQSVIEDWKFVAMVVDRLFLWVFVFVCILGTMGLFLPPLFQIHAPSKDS

Turning to `C[C@@H]1NC(=O)[C@@H]2CSSC[C@H](NC(=O)CN)C(=O)N[C@@H](CSSC[C@@H](C(N)=O)NC(=O)[C@H](Cc3c[nH]cn3)NC(=O)[C@H](CCC(=O)O)NC(=O)[C@H](Cc3c[nH]cn3)NC1=O)C(=O)N[C@@H](CO)C(=O)N[C@@H](CC(N)=O)C(=O)N1CCC[C@H]1C(=O)N1CCC[C@H]1C(=O)N2` [[Q1G, ΔR14]LvIB] (H-GCCSNPPCAHEHC-NH2; disulfide 2-8, 3-13), the inhibition rate against rat α6/α3β4 nAChRs worked out at 88 ± 5%. Moreover, on rat α7 nAChRs, the “Hill Slope” value is 0.99 (0.8–1.19), the “inhibition rate of ACh-evoked current” value worked out at 98 ± 0.12% and the “time to ~90% current restoration after block (recovery/washout)” value is reported as at most 17 min. On rat α3β2 nAChR, this compound displayed an inhibition rate of 97 ± 2%.
